Test results from EP0181592B1, “Use of spergualin derivatives for the preparation of medicaments having immunosuppressive activity” (MICROBIAL CHEMISTRY RESEARCH FOUNDATION, priority 1984, dated 1986).

Key:
CDFl mice = assay: Inhibition of production of antibodies against sheep red blood cells (plaque-forming spleen cells); type: in vivo; conditions: 12.5 mg/kg per day intraperitoneally for 3 days; plaque-forming spleen cells counted
From the text: The compounds of the formula I exert inhibitory effects on the function of lymphocytes of immunological importance. […] Therefore in vivo experiments have been conducted to examine the effects of the compounds of the formula I on T-lymphocytes. First, in accordance with the method of Lagrange et al. (Lagrange et al., Journal of Experimental Medicine, 139, 528-542, 1974), the compounds of the formula I were examined for their effects on delayed-type hypersensivity in mice that had been sensitized with sheep red blood cells. The delayed-type hypersensivity could be blocked by administering the compound for three consecutive days following the sensitization with sheep red blood cells. Additionally, in accordance with the method of Jerne et al. (Jerne et al., Cell-bound Antibodies, pp. 109-122, 1963), the compounds of the formula I were checked for their effects on the plaque-forming ability of spleen cells from mice sensitized by antigenic sheep red blood cells.
CDFl mice (6-10 wk old, female) were immunized by intravenous injection of 1 x 10⁸ sheep red blood cells. The mice were intraperitoneally administered 12.5 mg/kg per day of selected test compounds for a period of 3 days starting from the day following the intravenous injection. Four days later, spleen cells were isolated from the mice and the number of plaque-forming cells was counted. The percentage inhibition of antibody production was calculated by (1 - B/A) x 100 wherein A is the count for a control group (given physiological saline) and B, for the treated group.

[1] = test system: Spleen cells from BALB/C mice; assay: Inhibition of ConA-induced T-lymphocyte blast genesis (3H-thymidine uptake); type: cell-based; conditions: for inhibition of the reaction of T-lymphocyte blast genesis (in words): ConA-stimulated; for inhibition at 10 µg/mL / inhibition at 100 µg/mL: Mus musculus, T-lymphocyte, ConA 5 µg/ml, 72 hours; for inhibition at 10 µg/mL: 10 µg/ml compound; for inhibition at 100 µg/mL: 100 µg/ml compound
Experimental: (§1) Spleen cells from BALB/C mice were distributed among wells in a microplate so that each well contained 2 x 10⁵ cells/0.2 ml. Each of the selected test compounds was added to all wells but one, the latter being used as a control. ConA (5 µg/ml) was added to all the wells and the so prepared cell suspensions were cultivated in a 5% CO₂ incubator for 72 hours at 37°C. Eight hours before the completion of the incubation, 1 µCi of ³H-thymidine was added to each well and the uptake of the thymidine by the cultured cells was measured with a liquid scintillation counter to estimate the progress of reaction of T-lymphocyte blast genesis. The percentage inhibition of the genesis by each of the test compounds was calculated by: (1 - Bdpm/Adpm) x 100 wherein Adpm indicates the uptake count for the addition of ConA alone and Bdpm, the count for the addition of both ConA and the test compound.

[2] = test system: Mice Sensitized by Sheep Red Blood Cells; assay: Inhibition of delayed-type hypersensitivity in mice sensitized by sheep red blood cells (footpad swelling); type: in vivo, CDFl mice; conditions: relative to saline control = 100%, measured at the 24th hour
Experimental: CDFl mice (8-wk-old, female) were sensitized by intravenous injection of 1 x 10⁵ sheep red blood cells. Four days later, the sensitized mice were subcutaneously injected in one footpad with 1 x 10⁸ sheep red blood cells so as to induce delayed-type hypersensitivity. The swelling of the footpad was measured at the 24th hour with a micrometer. Each of the test compounds was administered intraperitoneally in the amounts (mg/kg) indicated in Table 3 for a period of 3 days that started on the day following the initial sensitization. The degree of footpad swelling was indicated in relative values, with the value for a control given physiological saline instead of the test compounds being taken as 100%.

[3] = test system: Spleen cells from BALB/C mice; assay: Inhibition of LPS-induced B-lymphocyte blast genesis (3H-thymidine uptake); type: cell-based; conditions: for suppression of LPS-induced genesis of B-lymphocyte blasts (in words): LPS-stimulated; for inhibition at 10 µg/mL / inhibition at 100 µg/mL: Mus musculus, 100 µg/ml of LPS from E. coli; for inhibition at 10 µg/mL: 10 µg/ml compound; for inhibition at 100 µg/mL: 100 µg/ml compound
Experimental: as §1
The uptake of ³H-thymidine by B-cell blasts was measured in accordance with the method used in Test Example 2, except that the inducer ConA was replaced by 100 µg/ml of LPS from E. coli. The percentage inhibition of blast genesis by selected test compounds was also determined by the same method as used in Text Example 2.

[4] = Toxicity to mice (LD50, single intraperitoneal administration); conditions: mouse, in vivo, ip, read-out: LD₅₀
From the text: The compounds of the formula I are characterized by relatively low toxicity and small accumulation of toxicity upon continuous administration.

[5] = 0.20 mg/kg intraperitoneally for 3 days
[6] = 0.78 mg/kg intraperitoneally for 3 days
[7] = 3.13 mg/kg intraperitoneally for 3 days
[8] = 12.5 mg/kg intraperitoneally for 3 days
[9] = 6.25 mg/kg intraperitoneally for 3 days
[10] = 25 mg/kg intraperitoneally for 3 days

| Compound | percentage inhibition of antibody production (CDFl mice) | inhibition of the reaction of T-lymphocyte blast genesis (in words) [1] | inhibition at 10 µg/mL [1] | inhibition at 100 µg/mL [1] | Footpad swelling (%) [2, 5] | Footpad swelling (%) [2, 6] | Footpad swelling (%) [2, 7] | Footpad swelling (%) [2, 8] | suppression of LPS-induced genesis of B-lymphocyte blasts (in words) [3] | inhibition at 10 µg/mL [3] | inhibition at 100 µg/mL [3] | LD50 [4] | Footpad swelling (%) ([2]; 0.39 mg/kg intraperitoneally for 3 days) | Footpad swelling (%) [2, 9] | Footpad swelling (%) [2, 10] |
| --- | --- | --- | --- | --- | --- | --- | --- | --- | --- | --- | --- | --- | --- | --- | --- |
| N=C(N)NCCCCCCC(=O)NC(O)C(=O)NCCCCNCCCN (centres unmarked) [(1), N-[4-(3-aminopropyl)aminobutyl]-2-(7-guanidinoheptaneamido)-2-hydroxyethaneamide] | 98.5% | strong ability to inhibit | 93% | 100% | 72% | 87% | 29% | 15% | highly effective in suppressing | 98% | 100% | 25 to 50 mg/kg |  |  |  |
| COC(NC(=O)CCCCCCNC(=N)N)C(=O)NCCCCNCCCN (centres unmarked) [(2), N-[4-(3-aminopropyl)aminobutyl]-2-(7-guanidinoheptaneamino)-2-methoxyethaneamide] | 95.9% |  |  |  | 99% | 49% | 5.5% |  |  |  |  | 12.5 to 25 mg/kg |  |  |  |
| N=C(N)NCCCCCCCCC(=O)NC(O)C(=O)NCCCCNCCCN (centres unmarked) [(3), N-[4-(3-aminopropyl)aminobutyl]-2-(9-guanidinononaneamido)-2-hydroxyethaneamide] |  |  |  |  | 55% | 32% | 11% | 6.6% |  |  |  | 12.5 to 25 mg/kg |  |  |  |
| N=C(N)NCCCCCCC(=O)NCC(=O)NCCCCNCCCN [(4), N-[4-(3-aminopropyl)aminobutyl]-2-(7-guanidinoheptaneamido)-ethaneamide] | 89,4% | strong ability to inhibit | 99% | 100% |  | 111% |  |  | highly effective in suppressing | 100% | 100% | 12.5 to 25 mg/kg | 99% | 46% |  |
| N=C(N)NCCCCCCC(=O)N[C@@H](CO)C(=O)NCCCCNCCCN [(5), N-[4-(3-aminopropyl)aminobutyl]-2-(7-guanidinoheptaneamido)-(S)-2-hydroxymethylethaneamide] | 89,4% | strong ability to inhibit | 96% | 100% | 81% | 117% | 58% |  | highly effective in suppressing | 88% | 100% | 12.5 to 25 mg/kg |  |  |  |
| N=C(N)Nc1ccc(CCCC(=O)NCC(=O)NCCCCNCCCN)cc1 [(6), N-[4-(3-aminopropyl)aminobutyl]-2-[4-(p-guanidinophenyl)butaneamido]ethaneamide] | 92,9% | strong ability to inhibit | 99% | 100% |  |  |  |  | highly effective in suppressing | 96% | 100% | 25 to 50 mg/kg |  | 102% | 33% |
| N=C(N)Nc1ccc(CCCC(=O)N[C@@H](CO)C(=O)NCCCCNCCCN)cc1 [(7), N-[4-(3-aminopropyl)aminobutyl]-2-[4-(p-guanidinophenyl)-butaneamido]-(S)-2-hydroxymethylethaneamide] |  |  |  |  |  |  |  |  |  |  |  | 25 to 50 mg/kg |  | 54% | 42% |
| N=C(N)NCc1ccc(CCC(=O)N[C@@H](CO)C(=O)NCCCCNCCCN)cc1 [(8), N-[4-(3-aminopropyl)aminobutyl]-2-[3-(p-guanidinomethylphenyl)propaneamido]-(S)-2-hydroxymethylethaneamide] |  | strong ability to inhibit | 79% | 100% |  |  | 50% | 20% |  |  |  | 25 to 50 mg/kg |  |  |  |
| N=C(N)Nc1ccc(CCCCC(=O)N[C@@H](CO)C(=O)NCCCCNCCCN)cc1 [(9), N-[4-(3-aminopropyl)aminobutyl]-2-[5-(p-guanidinophenyl)-pentaneamido]-(S)-2-hydroxymethylethaneamide] |  |  |  |  |  |  | 45% | 52% |  |  |  | 25 to 50 mg/kg |  |  |  |
| COC(NC(=O)C=CCCCCNC(=N)N)C(=O)NCCCCNCCCN (centres unmarked) [(10), N-[4-(3-aminopropyl)aminobutyl]-2-[7-guanidinohepta-2-enamido]-2-methoxyethaneamide] |  |  |  |  |  |  | 37% | 6.0% |  |  |  | 25 to 50 mg/kg |  |  |  |
| N=C(N)NCCCCC=CC(=O)NC(O)C(=O)NCCCCNCCCN (centres unmarked) [(11), N-[4-(3-aminopropyl)aminobutyl]-2-[7-guanidinohepta-2-enamido]-2-hydroxyethaneamide] |  | strong ability to inhibit | 88% | 100% |  |  | 40% | 8.5% | highly effective in suppressing | 98% | 100% | 25 to 50 mg/kg |  |  |  |
| N=C(N)NCCCC[C@H](O)CC(=O)NC(O)C(=O)NCCCCNCCCN (some centres unmarked) [Spergualin] |  |  |  |  |  |  | 106% | 28% |  |  |  |  |  |  |  |
